In PubChem BioAssay AID2060625 (Molecular Pharmacology Branch, DTP, NCI, 2025):
“And” between values parts separate entries of the source, which are not always exact repeats. Identical values can stand only once.

System: 186277-243-T-J2-PDC spheroids with HUVEC/MSC, viability
Assay: Anticancer human tumor 186277-243-T-J2-PDC patient-derived colon adenocarcinoma cell line growth inhibition [CLK]
Conditions: for viability, T/C: stronger effect = lower value
Outline: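 Multi-cell-type spheroids combined patient-derived tumor cells with HUVEC endothelial cells and human mesenchymal stem cells. Paired agents were dosed in half-log steps down from about clinical Cmax, or from 10 microM where Cmax was unknown.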

[1] = curve of first compound, second compound 0.0316 µM
[2] = curve of first compound, second compound 0.1 µM
[3] = curve of first compound, second compound 0.316 µM
[4] = curve of first compound, second compound 1 µM
[5] = curve of first compound, second compound 3.16 µM
[6] = curve of first compound, second compound 10 µM
[7] = second compound 0.0316 µM, first compound 0.0316 µM
[8] = second compound 0.0316 µM, first compound 0.1 µM
[9] = second compound 0.0316 µM, first compound 0.316 µM
[10] = second compound 0.0316 µM, first compound 1 µM
[11] = second compound 0.0316 µM, first compound 3.16 µM
[12] = second compound 0.0316 µM, first compound 10 µM
[13] = second compound 0.1 µM, first compound 0.0316 µM
[14] = second compound 0.1 µM, first compound 0.1 µM
[15] = second compound 0.1 µM, first compound 0.316 µM
[16] = second compound 0.1 µM, first compound 1 µM
[17] = second compound 0.1 µM, first compound 3.16 µM
[18] = second compound 0.1 µM, first compound 10 µM
[19] = second compound 0.316 µM, first compound 0.0316 µM
[20] = second compound 0.316 µM, first compound 0.1 µM
[21] = second compound 0.316 µM, first compound 0.316 µM
[22] = second compound 0.316 µM, first compound 1 µM
[23] = second compound 0.316 µM, first compound 3.16 µM
[24] = second compound 0.316 µM, first compound 10 µM
[25] = second compound 1 µM, first compound 0.0316 µM
[26] = second compound 1 µM, first compound 0.1 µM
[27] = second compound 1 µM, first compound 0.316 µM
[28] = second compound 1 µM, first compound 1 µM
[29] = second compound 1 µM, first compound 3.16 µM
[30] = second compound 1 µM, first compound 10 µM
[31] = second compound 3.16 µM, first compound 0.0316 µM
[32] = second compound 3.16 µM, first compound 0.1 µM
[33] = second compound 3.16 µM, first compound 0.316 µM
[34] = second compound 3.16 µM, first compound 1 µM
[35] = second compound 3.16 µM, first compound 3.16 µM
[36] = second compound 3.16 µM, first compound 10 µM
[37] = second compound 10 µM, first compound 0.0316 µM
[38] = second compound 10 µM, first compound 0.1 µM
[39] = second compound 10 µM, first compound 0.316 µM
[40] = second compound 10 µM, first compound 1 µM
[41] = second compound 10 µM, first compound 3.16 µM
[42] = second compound 10 µM, first compound 10 µM
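Further: compound exposure lasted seven days before readout.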
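Wherever viability, T/C is given: 100% = DMSO vehicle control wells.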

With `CC(Nc1ccc2c(c1)OCCn1cc(N3C(=O)OCC3C(F)F)nc1-2)C(N)=O` (centres undefined) the viability, T/C (compound 0.0316 µM) was 96.2%, the viability, T/C (compound 0.1 µM) was 103% and 104% and the viability, T/C (compound 0.316 µM) was 80% and 80.6%. For the same molecule, the viability, T/C (compound 1 µM) was 65.2% and 58.1%, the viability, T/C (compound 3.16 µM) was 58.7% and 53.7% and the viability, T/C (compound 10 µM) was 49.9% and 37.6%. The IC50 (curve of compound) was > 10000 nM and 2380 nM.
With `Nc1ccn(C2OC(CO)C(O)C2(F)F)c(=O)n1` (centres undefined) + CNC(=O)c1ccc(Nc2nc(OC3CCCC3)c3c(-c4ccc5nc(C)oc5c4)c[nH]c3n2)c(OC)c1 the IC50 [1] was < 31.6 nM, the IC50 [2] was < 31.6 nM and the IC50 [3] was < 31.6 nM. The IC50 [4] was < 31.6 nM, the IC50 [5] was < 31.6 nM and the IC50 [6] was < 31.6 nM. The viability, T/C [7] was 13.3%, the viability, T/C [8] was 10.8% and the viability, T/C [9] was 12%. For the same molecule, the viability, T/C [10] was 14.9%, the viability, T/C [11] was 14.7% and the viability, T/C [12] was 13.9%. It also gave a viability, T/C [13] of 15.8%, a viability, T/C [14] of 13.3% and a viability, T/C [15] of 13.3%. It also gave a viability, T/C [16] of 13.3%, a viability, T/C [17] of 14.8% and a viability, T/C [18] of 12.4%. For the same molecule, the viability, T/C [19] was 9.79%, the viability, T/C [20] was 9.9% and the viability, T/C [21] was 9.39%. It also gave a viability, T/C [22] of 11.3%, a viability, T/C [23] of 9.88% and a viability, T/C [24] of 8.65%. The viability, T/C [25] was 9.1%, the viability, T/C [26] was 8.33% and the viability, T/C [27] was 8.5%. The viability, T/C [28] was 8.25%, the viability, T/C [29] was 5.96% and the viability, T/C [30] was 6.34%. The viability, T/C [31] was 8.6%, the viability, T/C [32] was 7.49% and the viability, T/C [33] was 7.26%. For the same molecule, the viability, T/C [34] was 8.76%, the viability, T/C [35] was 6.3% and the viability, T/C [36] was 6.38%. For the same molecule, the viability, T/C [37] was 9.98%, the viability, T/C [38] was 9.04% and the viability, T/C [39] was 6.83%. For the same molecule, the viability, T/C [40] was 7.74%, the viability, T/C [41] was 6.77% and the viability, T/C [42] was 5.84%.
`C=CC(=O)N1CCN(c2nc(=O)n(-c3c(C)ccnc3C(C)C)c3nc(-c4c(O)cccc4F)c(F)cc23)C(C)C1` (centres undefined) + CN1CCN(c2cc(C(=O)Nc3cc4cc(-c5cnn(C)c5)ccc4cn3)ccn2)CC1 was tested, and the IC50 [1] was > 10000 nM, the IC50 [2] was > 10000 nM and the IC50 [3] was < 31.6 nM. The IC50 [4] was < 31.6 nM, the IC50 [5] was < 31.6 nM and the IC50 [6] was < 31.6 nM. For the same molecule, the viability, T/C [7] was 97.2%, the viability, T/C [8] was 108% and the viability, T/C [9] was 102%. The viability, T/C [10] was 98.8%, the viability, T/C [11] was 102% and the viability, T/C [12] was 86.6%. For the same molecule, the viability, T/C [13] was 102%, the viability, T/C [14] was 81% and the viability, T/C [15] was 90.5%. The viability, T/C [16] was 84.1%, the viability, T/C [17] was 86.2% and the viability, T/C [18] was 72.4%. The viability, T/C [19] was 29.7%, the viability, T/C [20] was 28.8% and the viability, T/C [21] was 29.5%. The viability, T/C [22] was 24.8%, the viability, T/C [23] was 30.8% and the viability, T/C [24] was 11%. The viability, T/C [25] was 0.72%, the viability, T/C [26] was 1.4% and the viability, T/C [27] was 0.59%. For the same molecule, the viability, T/C [28] was 1.74%, the viability, T/C [29] was 1.4% and the viability, T/C [30] was 1.65%. For the same molecule, the viability, T/C [31] was 0.98%, the viability, T/C [32] was 1.19% and the viability, T/C [33] was 1.22%. For the same molecule, the viability, T/C [34] was 2.38%, the viability, T/C [35] was 2.84% and the viability, T/C [36] was 1.94%. For the same molecule, the viability, T/C [37] was 0.63%, the viability, T/C [38] was 0.71% and the viability, T/C [39] was 1.36%. The viability, T/C [40] was 1.03%, the viability, T/C [41] was 2.23% and the viability, T/C [42] was 1.12%.
With `CC1(C)CCC(CN2CCN(c3ccc(C(=O)NS(=O)(=O)c4ccc(NCC5CCOCC5)c([N+](=O)[O-])c4)c(Oc4cnc5[nH]ccc5c4)c3)CC2)=C(c2ccc(Cl)cc2)C1` + CN1CCN(c2cc(C(=O)Nc3cc4cc(-c5cnn(C)c5)ccc4cn3)ccn2)CC1 the IC50 [1] was 5780 nM, the IC50 [2] was 5350 nM and the IC50 [3] was < 31.6 nM. The IC50 [4] was < 31.6 nM, the IC50 [5] was < 31.6 nM and the IC50 [6] was < 31.6 nM. The viability, T/C [7] was 92.5%, the viability, T/C [8] was 93.2% and the viability, T/C [9] was 94.6%. The viability, T/C [10] was 92.1%, the viability, T/C [11] was 104% and the viability, T/C [12] was 8.6%. It also gave a viability, T/C [13] of 82.4%, a viability, T/C [14] of 76.3% and a viability, T/C [15] of 87.6%. The viability, T/C [16] was 94.5%, the viability, T/C [17] was 101% and the viability, T/C [18] was 4.42%. The viability, T/C [19] was 30.1%, the viability, T/C [20] was 32.8% and the viability, T/C [21] was 23.6%. It also gave a viability, T/C [22] of 30.9%, a viability, T/C [23] of 25.3% and a viability, T/C [24] of 2.48%. For the same molecule, the viability, T/C [25] was 0.62%, the viability, T/C [26] was 0.92% and the viability, T/C [27] was 0.31%. The viability, T/C [28] was 0.75%, the viability, T/C [29] was 1.8% and the viability, T/C [30] was 0.48%. For the same molecule, the viability, T/C [31] was 1.95%, the viability, T/C [32] was 0.91% and the viability, T/C [33] was 1.71%. For the same molecule, the viability, T/C [34] was 1.07%, the viability, T/C [35] was 1.36% and the viability, T/C [36] was 0.41%. The viability, T/C [37] was 0.95%, the viability, T/C [38] was 1.04% and the viability, T/C [39] was 1.34%. For the same molecule, the viability, T/C [40] was 0.91%, the viability, T/C [41] was 0.55% and the viability, T/C [42] was 0.2%.
With `CC(=O)O[C@H]1C(=O)[C@@]2(C)[C@H]([C@H](OC(=O)c3ccccc3)[C@]3(O)C[C@H](OC(=O)[C@H](O)[C@@H](NC(=O)c4ccccc4)c4ccccc4)C(C)=C1C3(C)C)[C@]1(OC(C)=O)CO[C@@H]1C[C@@H]2O` + CN1CCN(c2cc(C(=O)Nc3cc4cc(-c5cnn(C)c5)ccc4cn3)ccn2)CC1 the IC50 [1] was < 31.6 nM, the IC50 [2] was < 31.6 nM and the IC50 [3] was < 31.6 nM. For the same molecule, the IC50 [4] was < 31.6 nM, the IC50 [5] was < 31.6 nM and the IC50 [6] was < 31.6 nM. For the same molecule, the viability, T/C [7] was 15.6%, the viability, T/C [8] was 13.7% and the viability, T/C [9] was 8.66%. The viability, T/C [10] was 12.4%, the viability, T/C [11] was 9.25% and the viability, T/C [12] was 8.97%. The viability, T/C [13] was 14.4%, the viability, T/C [14] was 14.6% and the viability, T/C [15] was 11.3%. For the same molecule, the viability, T/C [16] was 11.4%, the viability, T/C [17] was 10.2% and the viability, T/C [18] was 10.2%. For the same molecule, the viability, T/C [19] was 13.3%, the viability, T/C [20] was 13.2% and the viability, T/C [21] was 12.5%. For the same molecule, the viability, T/C [22] was 12.5%, the viability, T/C [23] was 13.6% and the viability, T/C [24] was 12.1%. It also gave a viability, T/C [25] of 2.45%, a viability, T/C [26] of 1.65% and a viability, T/C [27] of 0.61%. For the same molecule, the viability, T/C [28] was 3.85%, the viability, T/C [29] was 1.22% and the viability, T/C [30] was 0.69%. It also gave a viability, T/C [31] of 0.85%, a viability, T/C [32] of 1.39% and a viability, T/C [33] of 0.92%. The viability, T/C [34] was 2.55%, the viability, T/C [35] was 2.07% and the viability, T/C [36] was 1.24%. It also gave a viability, T/C [37] of 1.95%, a viability, T/C [38] of 3.43% and a viability, T/C [39] of 0.65%. For the same molecule, the viability, T/C [40] was 0.96%, the viability, T/C [41] was 1.3% and the viability, T/C [42] was 0.72%.
For `O=c1[nH]cc(F)c(=O)[nH]1`, the viability, T/C (compound 0.0316 µM) was 99.2% and 100%, the viability, T/C (compound 0.1 µM) was 84.2% and 98.6% and the viability, T/C (compound 0.316 µM) was 99% and 94.5%. For the same molecule, the viability, T/C (compound 1 µM) was 93.7% and 97%, the viability, T/C (compound 3.16 µM) was 108% and 102% and the viability, T/C (compound 10 µM) was 65.2% and 63%. The IC50 (curve of compound) was > 10000 nM.
For `CC1(C)CCC(CN2CCN(c3ccc(C(=O)NS(=O)(=O)c4ccc(NCC5CCOCC5)c([N+](=O)[O-])c4)c(Oc4cnc5[nH]ccc5c4)c3)CC2)=C(c2ccc(Cl)cc2)C1`, the viability, T/C (compound 0.0316 µM) was 94.3% and 88.2%, the viability, T/C (compound 0.1 µM) was 85.8% and 90.3% and the viability, T/C (compound 0.316 µM) was 97% and 104%. The viability, T/C (compound 1 µM) was 86.5% and 99.3%, the viability, T/C (compound 3.16 µM) was 106% and 110% and the viability, T/C (compound 10 µM) was 10.5% and 10%. For the same molecule, the IC50 (curve of compound) was 5800 nM and 5950 nM.
